Values quoted from earlier work, collected in US20160264934A1, “METHODS FOR MODULATING AND ASSAYING m6A IN STEM CELL POPULATIONS” (THE GENERAL HOSPITAL CORPORATION, priority 2015, published 2016).

Target: ALKBH5 (Homo sapiens, UniProt Q6P6C2)
Settings: HPLC-based assays

Sequence of ALKBH5 (Q6P6C2 whole entry, species assumed): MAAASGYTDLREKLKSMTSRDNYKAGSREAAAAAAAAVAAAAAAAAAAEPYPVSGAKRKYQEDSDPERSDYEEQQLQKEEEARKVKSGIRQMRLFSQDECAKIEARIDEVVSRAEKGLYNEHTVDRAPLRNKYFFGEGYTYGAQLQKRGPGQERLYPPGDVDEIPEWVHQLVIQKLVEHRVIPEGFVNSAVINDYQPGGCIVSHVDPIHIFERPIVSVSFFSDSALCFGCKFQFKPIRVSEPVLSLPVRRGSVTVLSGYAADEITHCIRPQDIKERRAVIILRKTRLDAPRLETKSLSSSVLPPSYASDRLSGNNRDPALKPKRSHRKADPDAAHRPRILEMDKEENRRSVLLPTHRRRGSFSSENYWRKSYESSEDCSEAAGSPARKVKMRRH

In the case of Cc1ccc(Cl)c(Nc2ccccc2C(=O)O)c1Cl [meclofenamic acid], the “inhibition of ALKBH5” value is given as “no inhibition”.
